Experiment: Transport in Caco-2 cells
Assay type: in vitro ADME, human
Conditions: human
Method: The culture medium was changed every other day for the first 7 days and then daily for the next 14 days. […] Prior to the transport experiments, the cell monolayers were washed three times with HBSS at 37°C. […] At the same time, the corresponding opposite side was filled with medium as the receiving chamber. After incubation for 30, 60, 90, and 120 min, 250-μl aliquots of the medium was taken from the receiving chamber at each time point, and prepared for analysis by HPLC–MS/MS. […] where (ΔQ/Δt) is the linear slope of the drug concentration in the receptor chamber over time, A represents the surface area of the membrane (1.12 cm^2), and C0 is the initial concentration of drug in the donor chamber. The efflux ratio (ERpermeability) for BL to AP and AP to BL transport was defined by the following equation: […] where Papp (BL–AP) and Papp (AP–BL) are the apparent permeability of drugs from the basolateral (BL) to apical (AP) and AP to BL sides of the monolayer, respectively.

[1] = Caco-2, BBR 10 μM in presence of TB-2 (5 μM), n = 3

Compound: COc1ccc2cc3[n+](cc2c1OC)CCc1cc2c(cc1-3)OCO2 [BBR, berberine]
- efflux ratio at 10 μM (Caco-2, Caco-2, BBR 10 μM in presence of TB-2 (5 μM), read-out: ERpermeability (efflux ratio)): 31.1
- Papp A→B at 10 μM [1]: 0.048 ± 0.014 ×10⁻⁶ cm/s
- Papp B→A at 10 μM [1]: 1.5 ± 0.499 ×10⁻⁶ cm/s

Reference: publication PMC6353801, “Enhanced Anti-diabetic Effect of Berberine Combined With Timosaponin B2 in Goto-Kakizaki Rats, Associated With Increased Variety and Exposure of Effective Substances Through Intestinal Absorption” (Frontiers in Pharmacology, 2019)
